Data set [1] has as its target T1, rat α2B (RNG gene) receptor (Rattus norvegicus, UniProt P19328).
T1 construct: expressed in transfected cells; host or cells: NIH-3T3 cells, calcium phosphate cotransfection
T1 sequence (P19328 1-453): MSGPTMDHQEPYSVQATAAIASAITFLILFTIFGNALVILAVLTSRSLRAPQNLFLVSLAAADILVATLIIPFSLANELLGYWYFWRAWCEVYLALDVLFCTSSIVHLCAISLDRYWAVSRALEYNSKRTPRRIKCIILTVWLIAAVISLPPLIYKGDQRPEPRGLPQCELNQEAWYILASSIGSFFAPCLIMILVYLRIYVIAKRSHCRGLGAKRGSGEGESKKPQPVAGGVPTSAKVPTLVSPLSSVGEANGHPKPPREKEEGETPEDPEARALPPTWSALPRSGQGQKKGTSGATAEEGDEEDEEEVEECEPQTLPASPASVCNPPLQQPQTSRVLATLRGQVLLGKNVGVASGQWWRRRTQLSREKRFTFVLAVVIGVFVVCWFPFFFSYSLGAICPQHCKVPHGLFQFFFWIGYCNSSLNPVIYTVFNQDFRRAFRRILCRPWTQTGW
Briefly: RSAT (Receptor Selection and Amplification Technology) assay, alpha 2B. Type of data set: cell-based. As to conditions: ratio of maximal effect to that of standard full agonist oxymetazoline. The source says:
This preferential activity can be determined in a variety of functional assays such as Cyclic AMP Production, Shimizu et al, J. Neurochem. […] In the study below, the RSAT assay on cells that have been transiently transfected with the human α2A (c10 gene), rat α2B (RNG gene) and human α2C (c4 gene) receptors was used.
The assay measures a receptor-mediated loss of contact inhibition that results in selective proliferation of receptor-containing cells in a mixed population of confluent cells. The increase in cell number is assessed with an appropriate transfected marker gene such as b-galactosidase, the activity of which can be easily measured in a 96-well format. Receptors that activate the G protein, Gq, elicit this response. Alpha2 receptors, which normally couple to Gi, activate the RSAT response when coexpressed with a hybrid Gq protein that has a Gi receptor recognition domain, called Gq/i5^2.
NIH-3T3 cells are plated at a density of 2×10^6 cells in 15 cm dishes and maintained in Dulbecco's modified Eagle's medium supplemented with 10% calf serum. One day later, cells are cotransfected by calcium phosphate precipitation with mammalian expression plasmids encoding p-SV-b-galactosidase (5-10 mg), receptor (1-2 mg) and G protein (1-2 mg). 40 mg salmon sperm DNA may also be included in the transfection mixture. Fresh media is added on the following day and 1-2 days later, cells are harvested and frozen in 50 assay aliquots. Cells are thawed and 100 ml added to […] aliquots of various concentrations of drugs in triplicate in 96-well dishes. Incubations continue 72-96 hr at 37°. After washing with phosphate-buffered saline, b-galactosidase enzyme activity is determined by adding 200 ml of the chromogenic substrate (consisting of 3.5 mM o-nitrophenyl-b-D-galactopyranoside and 0.5% nonidet P-40 in phosphate buffered saline), incubating overnight at 30° and measuring optical density at 420 nm. The absorbence is a measure of enzyme activity, which depends on cell number and reflects a receptor-mediated cell proliferation. The EC50 and maximal effect of each drug at each alpha2 receptor is determined. The efficacy or intrinsic activity is calculated as a ratio of the maximal effect of the drug to the maximal effect of a standard full agonist for each receptor subtype.

The test system of data set [2] is conscious cynomolgus monkeys. The experiment in a line: Cardiovascular side effects (blood pressure, heart rate) after i.v. administration. The data set is classed as in vivo, cynomolgus monkey. Particulars: for Maximum % Decrease From Pretreatment Levels, Heart Rate / Maximum % Decrease From Pretreatment Levels, Mean Arterial Blood Pressure: up to 6 hours, + with * = increase from base levels. The source says:
Cardiovascular measurements were made in a different group of monkeys using a BP 100S automated sphygmomanometer (Nippon Colin,. Japan).

Data set [3] relates to conscious cynomolgus monkeys. The experiment in a line: Sedation score during the IOP experiments. The data set is classed as in vivo, cynomolgus monkey. On the set-up: key to Sedation (0-4): 0=alert, typical vocalization, movement, etc.; 1=calm, less movement; 2=slightly sedated, some vocalization, responsive to stimulation; 3=sedated, no vocalization, some response to stimulation; 4=asleep. Here is the method: At the same time, sedation was measured and assessed according to the following score: 0=alert, typical vocalization, movement, etc.; 1=calm, less movement; 2=slightly sedated, some vocalization, responsive to stimulation; 3=sedated, no vocalization, some response to stimulation; 4=asleep.

Data set [4] deals with cynomolgus monkeys with sustained elevated IOP. The experiment in a line: IOP lowering in conscious monkeys, eyes made hypertensive by argon laser photocoagulation. The data set is classed as in vivo, cynomolgus monkey. Particulars: Macaca fascicularis, topical, single 50 μl eye drop, up to 6 hours, read-out: Maximum % Decrease From Pretreatment Levels Hypertensive Eye (IOP); for inhibition in vivo at 0.1 %: ocular dose 0.1%; for inhibition in vivo at 0.3 %: ocular dose 0.3%; for inhibition in vivo at 1 %: ocular dose 1%. The source says: Measurements of IOP were made in fully conscious female cynomolgus monkeys weighing 3-4 kg with sustained elevated IOP that was produced in the right eye by argon laser photocoagulation of the trabecular meshwork. Animals were usable for experiments 2 months following surgery. During the experiments, monkeys sat in specially designed chairs (Primate Products, San Francisco), and were fed orange juice and fruit as needed. A 30R model Digilab pneumatonometer (Alcon, Tex.) was used to measure IOP.
Twenty five μl of an anesthetic (proparacaine) was topically applied to each monkey before IOP measurements to minimize ocular discomfort due to tonometry. Two baseline measurements were made prior to instillation of the drugs, followed by periodic measurements up to 6 hours post-instillation. The test compounds were administered unilaterally as a single 50 μl eye drop; the contralateral eyes received an equal volume of saline.

Where two headings read alike, the source gives them in different places.

Consider `Cc1ccsc1Cc1cnc[nH]1` [4(5)-(3-methyl-thiophen-2-ylmethyl)-1H-imidazole, reference compound], for which the “Intrinsic Activity Relative to Oxymetazoline, Alpha 2B” value in data set [1] was 1.4. In data set [2] (i.v. 50 μg/kg), the “Maximum % Decrease From Pretreatment Levels, Heart Rate” value turned out to be 23 ± 4% and the “Maximum % Decrease From Pretreatment Levels, Mean Arterial Blood Pressure” value is on record as 9 ± 3%. Moreover, in data set [2] (i.v. 167 μg/kg), the “Maximum % Decrease From Pretreatment Levels, Heart Rate” value worked out at 32 ± 8% and the “Maximum % Decrease From Pretreatment Levels, Mean Arterial Blood Pressure” value is 8 ± 6%. In data set [2] (intravenous administration, monkeys), the “effect on heart rate (in words)” value is recorded as “weak effect on heart rate”.

Take `O=C1c2ccccc2OCC1Cc1c[nH]cn1` (stereo not drawn) [Example B-2b, 3-(1H-imidazol-4(5)-ylmethyl)chroman-4-one]: in data set [1], the “Intrinsic Activity Relative to Oxymetazoline, Alpha 2B” value amounted to 0.77. In data set [2] (i.v. 500 μg/kg), the “Maximum % Decrease From Pretreatment Levels, Heart Rate” value worked out at 6.4 ± 3.6% and the “Maximum % Decrease From Pretreatment Levels, Mean Arterial Blood Pressure” value is listed as 5.7 ± 1.4%.

As for `c1ccc2c(c1)CC(Cc1c[nH]cn1)CO2` (stereo not drawn) [Example B-2d, 4(5)-chroman-3-ylmethyl-1H-imidazole], the “Sedation (0-4)” value in data set [3] (ocular dose 0.1%) is given as 0. For the same molecule, the “Sedation (0-4)” value in data set [3] (ocular dose 0.3%) was found to be 0. In addition, the “Sedation (0-4)” value in data set [3] (ocular dose 1%) stood at 0. Also, in data set [1], the “Intrinsic Activity Relative to Oxymetazoline, Alpha 2B” value was determined as 0.6. In addition, in data set [2] (i.v. 500 μg/kg), the “Maximum % Decrease From Pretreatment Levels, Heart Rate” value is given as “+15.5 ± 3.4* %” and the “Maximum % Decrease From Pretreatment Levels, Mean Arterial Blood Pressure” value was “+8.9 ± 3.4* %”. In data set [4] (6 h), the inhibition in vivo at 0.1 % worked out at 22 ± 4.6%, the inhibition in vivo at 0.3 % worked out at 17 ± 4.2% and the inhibition in vivo at 1 % is 18.1 ± 5.2%.

Turning to `c1ccc2c(c1)CCC(Cc1c[nH]cn1)C2` (stereo not drawn) [Example B-3b, 4(5)-(1,2,3,4-tetrahydronaphthalen-2-ylmethyl)-1H-imidazole], the “Sedation (0-4)” value in data set [3] (ocular dose 0.1%) is recorded as 0. Besides, the “Sedation (0-4)” value in data set [3] (ocular dose 0.3%) came out at 0. Besides, in data set [1], the “Intrinsic Activity Relative to Oxymetazoline, Alpha 2B” value is 0.7. In data set [2] (i.v. 50 μg/kg), the “Maximum % Decrease From Pretreatment Levels, Heart Rate” value is 10.0 ± 2.8% and the “Maximum % Decrease From Pretreatment Levels, Mean Arterial Blood Pressure” value came out at 2.4 ± 4.3%. Also, in data set [4] (6 h), the inhibition in vivo at 0.1 % was found to be 25.9 ± 3.5% and the inhibition in vivo at 0.3 % turned out to be 31.2 ± 4.3%.

Consider `Cl.c1ccc2c(c1)CC(Cc1c[nH]cn1)CS2` (stereo not drawn) [Example B-6, 4(5)-thiochrom-3-ylmethyl-1H-imidazole, hydrogen chloride salt], for which the “Sedation (0-4)” value in data set [3] (ocular dose 0.3%) and in data set [3] (ocular dose 1%) was 0 in each case. The “Intrinsic Activity Relative to Oxymetazoline, Alpha 2B” value in data set [1] is recorded as 0.35. In addition, the inhibition in vivo at 0.3 % in data set [4] (6 h) amounted to 13.8 ± 2.4%. For the same molecule, in data set [4] (6 h), the inhibition in vivo at 1 % amounted to 22.1 ± 6.3%.

With `c1nc(CC2CCc3sccc3C2)c[nH]1` (stereo not drawn) [Example B-9a, 4(5)-(4,5,6,7-tetrahydrobenzo[b]thiophen-5-ylmethyl)-1H-imidazole], the “Sedation (0-4)” value in data set [3] (ocular dose 0.03%), in data set [3] (ocular dose 0.1%), in data set [3] (ocular dose 0.3%) and in data set [3] (ocular dose 1%) was 0 in each case. Besides, the “Intrinsic Activity Relative to Oxymetazoline, Alpha 2B” value in data set [1] was found to be 0.46. For the same molecule, the “Maximum % Decrease From Pretreatment Levels, Heart Rate” value in data set [2] (i.v. 500 μg/kg) is “+23.8 ± 4.4* %”. For the same molecule, the “Maximum % Decrease From Pretreatment Levels, Mean Arterial Blood Pressure” value in data set [2] (i.v. 500 μg/kg) is listed as “+10.8 ± 3.2* %”. In addition, in data set [4] (ocular dose 0.03%), the inhibition in vivo at 0.03 % is 17.6 ± 1.7%. For the same molecule, the inhibition in vivo at 0.1 % in data set [4] is 26.7 ± 6.1%. Also, the inhibition in vivo at 0.3 % in data set [4] is 24.8 ± 3.3%. In data set [4], the inhibition in vivo at 1 % was 26.8 ± 5.4%.

Turning to `c1nc(Cc2ccsc2)c[nH]1` [Example C-1, 4(5)-thiophen-3-ylmethyl-1H-imidazole], the “Sedation (0-4)” value in data set [3] (ocular dose 1%) and in data set [3] (ocular dose 3%) was 0 each time. Also, in data set [1], the “Intrinsic Activity Relative to Oxymetazoline, Alpha 2B” value is 0.83. Further, the “Maximum % Decrease From Pretreatment Levels, Heart Rate” value in data set [2] (i.v. 50 μg/kg) is listed as 12 ± 4%; in data set [2] (i.v. 500 μg/kg), “+11 ± 9* %”. In addition, the entries for the “Maximum % Decrease From Pretreatment Levels, Mean Arterial Blood Pressure” value in data set [2] (i.v. 50 μg/kg) and in data set [2] (i.v. 500 μg/kg) were 12.8 ± 12% and “+5 ± 8* %”, respectively. In addition, the inhibition in vivo at 1 % in data set [4] was 25 ± 4%. The inhibition in vivo at 3 % in data set [4] (ocular dose 3%) worked out at 29 ± 4%.

With `c1csc(Cc2c[nH]cn2)c1` [Example C-2, 4(5)-thiophen-2-ylmethyl-1H-imidazole], in data set [3] (ocular dose 1%), the “Sedation (0-4)” value came to 0. The “Intrinsic Activity Relative to Oxymetazoline, Alpha 2B” value in data set [1] is given as 1.3. In data set [2] (i.v. 500 μg/kg), the “Maximum % Decrease From Pretreatment Levels, Heart Rate” value is given as 6.5 ± 2.9% and the “Maximum % Decrease From Pretreatment Levels, Mean Arterial Blood Pressure” value stood at 6.6 ± 1.7%. For the same molecule, the inhibition in vivo at 1 % in data set [4] turned out to be 29.6 ± 5.5%.

Turning to `c1coc(Cc2c[nH]cn2)c1` [Example C-5, 4(5)-furan-2-ylmethyl-1H-imidazole], the “Intrinsic Activity Relative to Oxymetazoline, Alpha 2B” value in data set [1] worked out at 1.1. In addition, in data set [2] (i.v. 500 μg/kg), the “Maximum % Decrease From Pretreatment Levels, Heart Rate” value came out at 7.1 ± 3.9% and the “Maximum % Decrease From Pretreatment Levels, Mean Arterial Blood Pressure” value is on record as 3.9 ± 2.8%.

With `c1ccc(C2C3CCC(C3)C2/N=C2/NCCO2)cc1` [Example D-1, oxazolidin-2-ylidene-(3-phenylbicyclo[2.2.1]hept-2-yl) amine], the “Sedation (0-4)” value in data set [3] (ocular dose 1%) is reported as 0. Besides, in data set [1], the “Intrinsic Activity Relative to Oxymetazoline, Alpha 2B” value was determined as 0.47. In addition, in data set [4], the inhibition in vivo at 1 % amounted to 25.6 ± 3.9%.

With `c1ccc2c(c1)CC[C@@H](Cc1c[nH]cn1)C2` [Example J-3, (R)-4(5)-(1,2,3,4-tetrahydronaphthalen-2-ylmethyl)-1H-imidazole], in data set [3] (ocular dose 0.03%), the “Sedation (0-4)” value came to 0. The “Sedation (0-4)” value in data set [3] (ocular dose 0.3%) amounted to 0. Further, in data set [1], the “Intrinsic Activity Relative to Oxymetazoline, Alpha 2B” value is reported as 1. In addition, in data set [2] (i.v. 500 μg/kg), the “Maximum % Decrease From Pretreatment Levels, Heart Rate” value is reported as “+10.6 ± 6.0* %” and the “Maximum % Decrease From Pretreatment Levels, Mean Arterial Blood Pressure” value is given as “+1.0 ± 2.1* %”.

(Values after US6841684B2, “Imidiazoles having reduced side effects” (Allergan, Inc., priority 1997, dated 2005).)
